Test results: patent publication US20120115827A1, “3-AMINOBENZAMIDE COMPOUNDS AND VANILLOID RECEPTOR SUBTYPE 1 (VR1) INHIBITORS” (Japan Tobacco Inc., priority 2004, published 2012)
Counter-ions that a name gives are not always drawn.

Target: T1, human VR1 (Homo sapiens, UniProt Q8NER1)
T1 construct: expressed in transfected cells
Assay: Inhibition of Ca2+ entry in cells caused by proton (VR1 agonist)
Format: cell-based
Conditions: Rat glioma (C6BU1) cells stably expressing human VR1; proton stimulation to pH 5.5; Fura 2-AM fluorescence; read-out: In vitro IC50
Experimental: The assay for evaluation of VR1 inhibition by the inventive compounds will be described below. The assay was intended to evaluate in vitro inhibition of Ca^2+ entry in cells caused by proton, one of the VR1 agonists.
Rat glioma (C6BU1) cells stably expressing human VR1 were suspended in 20 mM MES buffer (at pH 6.8, contg. 20 mM 2-morpholinoethanesulfonate (referred to as MES hereinafter), 115 mM NaCl, 5 mM KCl, 1 mM MgCl2 and 14 mM D-glucose) to make a cell density of 1×10^6 cells/mL. A fluorescent dye, Fura 2-AM solution (Dojindo Corporate, Cat. No. 343-05401) was added to the suspension to make a 5 μM concentration thereof. Further, Pluronic F-127 (Wako Pure Chemical Industries, Ltd., Cat. No. P6866) was added to make a 0.1% content thereof. Then, the suspension was incubated at 37° C. for 30 min. The cells were harvested and washed three times with 20 mM MES buffer. The cells were suspended again to make a cell density of 5×10^5 cells/mL. A 500-μL portion of the suspension was taken with a cuvette (MC MEDICAL, INC., Cat. No. SSR3121), to which […] MES buffer containing 250 mM CaCl2 was added to incorporate Ca^2+ into the cells. At the same time, 5 μL of a test compound solution (in a range of 100 μM to 10 nM in DMSO) was also added to provide a final concentration thereof in a range of 1 μM to 0.1 nM. Alternatively, 5 μl of DMSO was added as control to provide a final concentration of 1% DMSO. The suspension was set in an intracellular ionometer (CAF-110; JASCO) 10 min after those additions. The cells were stimulated with protons by addition of 60 μL of 20 mM MES buffer at pH 1.1 to the suspension to set its pH at 5.5. The activity of the test compound was determined as a difference between the minimum of fluorescence intensity before agonist stimulation and its maximum after the stimulation. The value of IC50 was derived from percentage of inhibition by the test compound compared with the control.

T1 sequence (Q8NER1 whole entry): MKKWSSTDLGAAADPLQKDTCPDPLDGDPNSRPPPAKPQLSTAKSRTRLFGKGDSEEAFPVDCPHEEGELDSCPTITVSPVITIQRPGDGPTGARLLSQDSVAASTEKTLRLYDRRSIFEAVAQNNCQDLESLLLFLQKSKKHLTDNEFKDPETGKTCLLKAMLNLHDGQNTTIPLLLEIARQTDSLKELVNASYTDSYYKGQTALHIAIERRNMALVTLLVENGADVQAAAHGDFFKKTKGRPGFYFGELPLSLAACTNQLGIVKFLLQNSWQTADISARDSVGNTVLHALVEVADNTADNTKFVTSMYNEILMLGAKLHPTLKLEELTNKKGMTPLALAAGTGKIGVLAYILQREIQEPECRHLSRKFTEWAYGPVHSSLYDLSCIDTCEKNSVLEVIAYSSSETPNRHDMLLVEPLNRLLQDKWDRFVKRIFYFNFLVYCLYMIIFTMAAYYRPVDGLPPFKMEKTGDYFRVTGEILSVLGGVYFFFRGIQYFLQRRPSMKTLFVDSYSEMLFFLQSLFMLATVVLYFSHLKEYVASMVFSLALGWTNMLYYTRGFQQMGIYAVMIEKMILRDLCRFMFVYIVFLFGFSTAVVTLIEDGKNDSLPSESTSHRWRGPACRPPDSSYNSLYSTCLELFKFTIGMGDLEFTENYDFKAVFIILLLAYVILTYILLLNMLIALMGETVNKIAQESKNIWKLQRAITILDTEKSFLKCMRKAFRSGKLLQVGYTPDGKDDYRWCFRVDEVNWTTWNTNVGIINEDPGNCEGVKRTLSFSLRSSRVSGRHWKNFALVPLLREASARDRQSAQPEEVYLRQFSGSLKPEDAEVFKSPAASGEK

| IC50 [µM] | Compound |
| --- | --- |
| ≤ 0.1 | CC(C)(C)c1ccc(NC(=O)c2ccc(Cl)c(N(CCCO)c3ncccc3Cl)c2)cc1 [Example 45, 4-chloro-3-[N-(3-chloropyridin-2-yl)-N-(3-hydroxypropyl)amino]-N-(4-tert-butylphenyl)-benzamide] |
| ≤ 0.1 | CC(C)(C)c1ccc(NC(=O)c2ccc(Cl)c(N(CC(N)=O)c3ncccc3Cl)c2)cc1 [Example 47, 4-chloro-3-[N-(3-chloropyridin-2-yl)-N-(carbamoylmethyl)amino]-N-(4-tert-butylphenyl)-benzamide] |
| ≤ 0.1 | O=C(Nc1ccc(C(F)(F)F)cc1)c1ccc(Cl)c(N(CCO)c2ncccc2Cl)c1 [Example 31, 4-chloro-3-[N-(3-chloropyridin-2-yl)-N-(2-hydroxyethyl)amino]-N-(4-trifluoromethylphenyl)-benzamide, hydrochloride salt] |
| ≤ 0.1 | CC(C)Oc1ccc(NC(=O)c2ccc(Cl)c(N(CCO)c3ncccc3Cl)c2)cc1 [Example 41, 4-chloro-3-[N-(3-chloropyridin-2-yl)-N-(2-hydroxyethyl)amino]-N-(4-isopropyloxyphenyl)-benzamide] |
| 0.1 to 1 | CN(c1ccc(Cl)c(C(=O)Nc2ccc(C(C)(C)C)cc2)c1)c1ncccc1Cl [Example 24, N-(4-tert-butylphenyl)-2-chloro-5-[N-(3-chloropyridin-2-yl)-N-methyl]aminobenzamide] |
| ≤ 0.1 | Cc1ccc(C(=O)Nc2ccc(OC(F)(F)F)cc2)cc1N(CC(N)=O)c1ncccc1Cl [Example 64, 3-[N-(3-chloropyridin-2-yl)-N-(carbamoylmethyl)amino]-4-methyl-N-(4-trifluoromethoxyphenyl)-benzamide] |
| ≤ 0.1 | O=C(Nc1ccc(OC(F)(F)F)cc1)c1ccc(Cl)c(N(CCO)c2ncccc2Cl)c1 [Example 32, 4-chloro-3-[N-(3-chloropyridin-2-yl)-N-(2-hydroxyethyl)amino]-N-(4-trifluoromethoxyphenyl)benzamide, hydrochloride salt] |
| ≤ 0.1 | CNC(=O)CN(c1cc(C(=O)Nc2ccc(C(F)(F)F)cc2)ccc1Cl)c1ncccc1Cl [Example 66, 4-chloro-3-[N-(3-chloropyridin-2-yl)-N-(N-methylcarbamoylmethyl)amino]-N-(4-trifluoromethylphenyl)-benzamide] |
| ≤ 0.1 | CNC(=O)CN(c1cc(C(=O)Nc2ccc(C(C)(C)C)cc2)ccc1Cl)c1ncccc1Cl [Example 48, 4-chloro-3-[N-(3-chloropyridin-2-yl)-N-(N-methylcarbamoylmethyl)amino]-N-(4-tert-butylphenyl)-benzamide] |
| ≤ 0.1 | CC(C)Oc1ccc(C(=O)Nc2ccc(C(C)(C)C)cc2)cc1N(C)c1ncccc1Cl [Example 16, N-(4-tert-butylphenyl)-3-[N-(3-chloropyridin-2-yl)-N-methyl-amino]-4-isopropoxybenzamide] |
| ≤ 0.1 | NC(=O)CN(c1cc(C(=O)Nc2ccc(C(F)(F)F)cc2)ccc1Cl)c1ncccc1Cl [Example 59, 4-chloro-3-[N-(3-chloropyridin-2-yl)-N-(carbamoylmethyl)amino]-N-(4-trifluoromethylphenyl)-benzamide] |
| ≤ 0.1 | CC(C)COc1ccc(NC(=O)c2ccc(Cl)c(N(CCO)c3ncccc3Cl)c2)cc1 [Example 35, 4-chloro-3-[N-(3-chloropyridin-2-yl)-N-(2-hydroxyethyl)amino]-N-(4-isobutyloxyphenyl)benzamide, hydrochloride salt] |
| ≤ 0.1 | CC(C)COc1ccc(NC(=O)c2ccc(Cl)c(N(CC(N)=O)c3ncccc3Cl)c2)cc1 [Example 61, 4-chloro-3-[N-(3-chloropyridin-2-yl)-N-(carbamoylmethyl)amino]-N-(4-isobutyloxyphenyl)-benzamide] |
| ≤ 0.1 | CN(c1cc(C(=O)Nc2ccc(OC(F)(F)F)cc2)ccc1F)c1ncc(CO)cc1Cl [Example 83, 3-[N-(3-chloro-5-hydroxymethylpyridin-2-yl)-N-methyl-amino]-4-fluoro-N-(4-trifluoromethoxyphenyl)-benzamide] |
| ≤ 0.1 | CC(C)(C)c1ccc(NC(=O)c2ccc(Cl)c(N(CCO)c3ncccc3Cl)c2)cc1 [Example 30, N-(4-tert-butylphenyl)-4-chloro-3-[N-(3-chloropyridin-2-yl)-N-(2-hydroxyethyl)amino]benzamide] |
| ≤ 0.1 | COCCN(c1cc(C(=O)Nc2ccc(C(C)(C)C)cc2)ccc1Cl)c1ncccc1Cl [Example 29, N-(4-tert-butylphenyl)-4-chloro-3-[N-(3-chloropyridin-2-yl)-N-(2-methoxyethyl)amino]benzamide] |

| IC50 [µM] | Compound |
| --- | --- |
| ≤ 0.1 | NC(=O)CN(c1cc(C(=O)Nc2ccc(OC(F)(F)F)cc2)ccc1Cl)c1ncc(C(F)(F)F)cc1Cl [Example 67, 4-chloro-3-[N-(3-chloro-5-trifluoromethylpyridin-2-yl)-N-(carbamoylmethyl)amino]-N-(4-trifluoromethoxyphenyl)-benzamide] |
| 0.1 to 1 | CN(C)C(=O)CN(c1cc(C(=O)Nc2ccc(C(C)(C)C)cc2)ccc1Cl)c1ncccc1Cl [Example 49, 4-chloro-3-[N-(3-chloropyridin-2-yl)-N—(N,N-dimethylcarbamoylmethyl)amino]-N-(4-tert-butylphenyl)-benzamide] |
| ≤ 0.1 | Cc1ccc(C(=O)Nc2ccc(C(C)(C)C)cc2)cc1N(C)c1ncccc1Cl [Example 7, N-(4-tert-butylphenyl)-3-[N-(3-chloropyridin-2-yl)-N-methyl-amino]-4-methylbenzamide] |
| ≤ 0.1 | CN(c1cc(C(=O)Nc2ccc(C(C)(C)C)cc2)ccc1Cl)c1ncc(CO)cc1Cl [Example 78, N-(4-tert-butylphenyl)-4-chloro-3-[N-(3-chloro-5-hydroxymethylpyridin-2-yl)-N-methyl-amino]benzamide] |
| ≤ 0.1 | CC(C)(C)c1ccc(NC(=O)c2ccc(Cl)c(N(CC(=O)O)c3ncccc3Cl)c2)cc1 [Example 46, N-(3-chloropyridin-2-yl)-N-{2-chloro-5-[N-(4-tert-butylphenyl)carbamoyl]phenyl}-aminoacetic acid] |
| ≤ 0.1 | CC(C)c1ccc(NC(=O)c2ccc(Cl)c(N(CCO)c3ncccc3Cl)c2)cc1 [Example 37, 4-chloro-3-[N-(3-chloropyridin-2-yl)-N-(2-hydroxyethyl)amino]-N-(4-isopropylphenyl)-benzamide] |
| ≤ 0.1 | O=C(Nc1ccc(C(F)(F)F)nc1)c1ccc(Cl)c(N(CCO)c2ncccc2Cl)c1 [Example 40, 4-chloro-3-[N-(3-chloropyridin-2-yl)-N-(2-hydroxyethyl)amino]-N-(2-trifluoromethylpyridine-5-yl)benzamide] |
| ≤ 0.1 | CN(c1cc(C(=O)Nc2ccc(C(C)(C)C)cc2)ccc1OCC(N)=O)c1ncccc1Cl [Example 20, N-(4-tert-butylphenyl)-4-carbamoylmethyloxy-3-[N-(3-chloropyridin-2-yl)-N-methyl-amino]benzamide] |
| ≤ 0.1 | CN(c1cc(C(=O)Nc2ccc(C(C)(C)C)cc2)ccc1-c1ccccc1)c1ncccc1Cl [Example 8, N-(4-tert-butylphenyl)-3-[N-(3-chloropyridin-2-yl)-N-methyl-amino]-4-phenylbenzamide] |
| ≤ 0.1 | CN(c1cc(C(=O)Nc2ccc(C(C)(C)C)cc2)ccc1Cl)c1ncccc1Cl [Example 12, N-(4-tert-butylphenyl)-4-chloro-3-[N-(3-chloropyridin-2-yl)-N-methyl-amino]benzamide] |
| ≤ 0.1 | COc1ccc(C(=O)Nc2ccc(C(C)(C)C)cc2)cc1N(C)c1ncccc1Cl [Example 4, N-(4-tert-butylphenyl)-3-[N-(3-chloropyridin-2-yl)-N-methyl]amino-4-methoxybenzamide] |
| ≤ 0.1 | COCOc1ccc(C(=O)Nc2ccc(C(C)(C)C)cc2)cc1N(C)c1ncccc1Cl [Example 14, N-(4-tert-butylphenyl)-3-[N-(3-chloropyridin-2-yl)-N-methyl-amino]-4-methoxymethyloxybenzamide] |
| ≤ 0.1 | CN(c1cccc(C(=O)Nc2ccc(C(C)(C)C)cc2)c1)c1ncccc1Cl [Example 1, N-(4-tert-butylphenyl)-3-[N-(3-chloropyridin-2-yl)-N-methyl-amino]benzamide, hydrochloride salt] |
| ≤ 0.1 | O=C(Nc1ccc(Cl)cc1)c1ccc(Cl)c(N(CCO)c2ncccc2Cl)c1 [Example 36, 4-chloro-N-(4-chlorophenyl)-3-[N-(3-chloropyridin-2-yl)-N-(2-hydroxyethyl)amino]-benzamide] |
| ≤ 0.1 | CNC(=O)COc1ccc(C(=O)Nc2ccc(C(C)(C)C)cc2)cc1N(C)c1ncccc1Cl [Example 21, N-(4-tert-butylphenyl)-3-[N-(3-chloropyridin-2-yl)-N-methyl-amino]-4-(N-methylcarbamoylmethyl)oxybenzamide] |
